The text below walks through data of PMC6506705 (2019).

The test system of experiment [1] is EA#14.3K42 non-labelled (DNA, aptamer) ATACCAGCTTATTCAATTTGAGGCGGGTGGGTGGGTTGAATA
The experiment in a line: dye fluorescence melting profile, qualitative. The note with it: 100 mM NaCl; 20 mM TRIS, 0.02% Tween 20, pH 7.6; 10x dye; 0.5-4 μM aptamer.

Experiment [2] deals with EA#14.3K31 non-labelled (DNA, aptamer) ATTCAATTTGAGGCGGGTGGGTGGGTTGAAT
The experiment in a line: dye fluorescence melting profile, qualitative. The note with it: 100 mM NaCl; 20 mM TRIS, 0.02% Tween 20, pH 7.6; 10x dye; 0.5-4 μM aptamer.

For `CCCN(CCCN(C)C)c1cc(C=C2Sc3ccccc3N2C)c2ccccc2[n+]1-c1ccccc1`, the binding result in experiment [1] and in experiment [2] was “yes” in each case.
